The subject of one data set is MV-4-11 cells. Briefly: Cell viability / growth inhibition (EZ-Cytox), MV-4-11. It counts as cell-based, human. The following applies: 72 h; called IC50 in supplementary text. Here is the method: The cultured cells were incubated at 37°C with 5% CO2. Cell viability was assessed with a tetrazolium-based assay using the EZ-Cytox Cell Viability Assay kit (DaeilLab, Korea). Briefly, 2,000 ∼ 15,000 cells were plated in 96-well flat bottom plates in 100 µl of medium. The next day, the cells were treated with compounds along with dimethyl sulfoxide (DMSO, Fisher, Waltham, MA, USA) as a negative control. […] After incubation, the optical density (OD) was measured at a wavelength of 450 nm with a Victor multilabel reader (Perkin Elmer, Waltham, MA, USA).

In another data set the target is T1, FLT3 (Homo sapiens, UniProt P36888).
T1 construct: Recombinant proteins containing the FLT3 kinase domain were purchased from Carna biosciences (Japan); purchased Carna biosciences (Japan)
T1 sequence (P36888 610-943 limits assumed): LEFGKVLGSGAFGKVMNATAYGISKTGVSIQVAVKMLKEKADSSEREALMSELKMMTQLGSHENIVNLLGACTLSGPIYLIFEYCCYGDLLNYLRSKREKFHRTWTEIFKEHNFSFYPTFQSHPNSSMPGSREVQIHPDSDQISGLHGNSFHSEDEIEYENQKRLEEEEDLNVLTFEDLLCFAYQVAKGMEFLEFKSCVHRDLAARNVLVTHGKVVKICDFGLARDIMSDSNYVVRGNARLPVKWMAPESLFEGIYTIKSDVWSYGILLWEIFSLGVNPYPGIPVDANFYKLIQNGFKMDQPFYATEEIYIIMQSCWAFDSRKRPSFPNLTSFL
Briefly: In vitro FLT3 kinase assay (HTRF). The following applies: recombinant FLT3, HTRF; read-out: IC50 FLT3 kinase activity. It counts as biochemical. Here is the method:
The inhibition of the FLT3 kinase activity was measured with homogeneous, time-resolved fluorescence (HTRF) assays. Recombinant proteins containing the FLT3 kinase domain were purchased from Carna biosciences (Japan). Optimal enzyme, ATP, and substrate concentrations were established with the HTRF KinEASE kit (Cisbio, France) according to the manufacturer’s instructions. The FLT3 enzymes were mixed with serially diluted compounds and peptide substrates in a kinase reaction buffer (50 mM HEPES (pH 7.0), 500 μM ATP, 0.1 mM sodium orthovanadate, 5 mM MgCl2, 1 mM DTT, 0.01% bovine serum albumin (BSA), and 0.02% NaN3). After the addition of the reagents for detection, the TR-FRET signal was measured with a Victor multilabel reader (Perkin Elmer, Waltham, MA, USA). […] JAK2, JAK3, cMET, and RET in vitro kinase assays were also carried out using the HTRF assay kit.
(TR-FRET usually uses a lanthanide donor and a delayed reading to cut background.)

Data set [1] is described as follows: Pharmacokinetics in mice (intravenous and oral). It counts as in vivo, ICR mice. The following applies: for AUC1940/AUC1937 / AUC / Ae0–24 h / Cmax / GI24 h / Terminal half-life / Tmax: mice. Here is the method:
The protocols for the animal studies were approved by the Institute of Laboratory Animal Resources of Dongguk University, Seoul, South Korea (IACUC-2015-055-1). Five-week-old male Imprinting Control Region (ICR) mice were purchased from the Charles River Company Korea (Orient, Seoul, South Korea). Upon arrival, the animals were randomized and housed four per cage under strictly controlled environmental conditions (22-25°C and 48-52% relative humidity) with a 12 h light/dark cycle at an intensity of 150 to 300 Lux. All mice were provided food and water ad libitum and were then maintained during this study. In the intravenous study of LDD1937, 10 mg/kg of LDD1937 (dissolved in distilled water at a concentration of 2 mg/ml) were intravenously injected into the mice through the tail vein. A blood sample of approximately 0.12 ml was collected by cardiac puncture. Additionally, in the oral study of LDD1937, 10 mg/kg of LDD1937 (dissolved in the same solution used in the intravenous study) were orally administered to the mice. The analysis of LDD1937 and LDD1940, a metabolite of LDD1937, in biological samples was done with LC-MS/MS using the Waters UPLC-XEVO TQ system (Waters Corporation, Milford, CT, USA). […]1940, and carbamazepine (an internal standard, IS) were ionized in the multiple reaction monitoring mode with an ESI interface for positive ions ([M+H]^+). The turbo ion-spray interface was operated at an ion capillary voltage of 3.0 kV with a desolvation gas flow of 650 l/h and a cone gas flow of 10 l/h at 350°C. […] Separation was done on a reverse-phase C18 column (BEH, […]; Waters, Ireland) with a mobile phase, distilled water containing 0.1% formic acid and acetonitrile, at 30°C. After measuring the concentrations of the LDD1937 and LDD1940, standard methods were used to calculate the pharmacokinetic parameters using a non-compartmental analysis (WinNonlin 2.1; […] Corp., Mountain View, CA, USA).

Data set [2] has as its system FLT3, VEGFR1/2, PDGFRβ, and PKCα/β/γ. Also noted: method as in PMID 10888033. The note with it: read-out: IC50s against kinases including FLT3, VEGFR1/2, PDGFRβ, and PKCα/β/γ; cited from earlier work.
The mark [3] stands for this setting: metabolite LDD1940 after 10 mg/kg LDD1937 intravenous.
[4] abbreviates: metabolite LDD1940 after 10 mg/kg LDD1937 oral.

Values joined by “and” are separate entries in the source; they are usually repeats but may differ in a detail not shown here. Equal values may be shown once.

For the molecule `COC(=O)c1ccc2c(c1)/C(=C1/Nc3ccccc3/C1=N\OCCBr)C(=O)N2` [Compound 2], in the data set on MV-4-11 cells, the concentration for 50% growth inhibition (GI50) (as a rule, the concentration at which growth is held to half of that of the control) came to 51 ± 11 nM. Further, the IC50 at FLT3 came to 19.2 ± 1.88 nM.
In the data set with MV-4-11 cells, `COC(=O)c1ccc2c(c1)/C(=C1/Nc3ccccc3/C1=N\OCCN)C(=O)N2` [Compound 3] registered a GI50 of 15 ± 3 nM. Further, the IC50 on FLT3 turned out to be 4.5 ± 0.75 nM.
The molecule `COC(=O)c1ccc2c(c1)/C(=C1/Nc3ccccc3/C1=N\OCCN1CCN(C)CC1)C(=O)N2` [Compound 5] came in with a GI50 with MV-4-11 cells of 11 ± 1.5 nM. For the same molecule, on FLT3, the IC50 came out at 10.8 ± 2.02 nM.
In the case of `COC(=O)c1ccc2c(c1)/C(=C1/Nc3ccccc3/C1=N\OCCN1CCOCC1)C(=O)N2` [Compound 6], halving of growth with MV-4-11 cells (GI50) required 53 ± 11 nM. The IC50 at FLT3 is 253 ± 81.4 nM.
Regarding `O=C1Nc2ccc(C(=O)O)cc2/C1=C1/Nc2ccccc2/C1=N\O` [Compound 7], in the data set with MV-4-11 cells, the GI50 is above 1000 nM and the “GI50 MV-4-11” value is “lack of an anti-proliferative activity”.
In the data set on MV-4-11 cells, `O=C1Nc2ccc(C(=O)O)cc2/C1=C1/Nc2ccccc2/C1=N\OCCBr` [Compound 8] returned a GI50 of 340 ± 81 nM. Besides, the IC50 at FLT3 worked out at 12.9 ± 0.97 nM.
`NCCO/N=C1/C(=C2/C(=O)Nc3ccc(C(=O)O)cc32)Nc2ccccc21` [Compound 9] came in with a concentration for 50% growth inhibition (GI50) in the data set with MV-4-11 cells of 150 ± 33 nM. The IC50 at FLT3 worked out at 3.3 ± 0.11 nM.
Regarding `CN1CCN(CCO/N=C2/C(=C3/C(=O)Nc4ccc(C(=O)O)cc43)Nc3ccccc32)CC1` [Compound 11], the GI50 with MV-4-11 cells was found to be 176 ± 51 nM. Moreover, the IC50 on FLT3 was 3.3 ± 0.6 nM.
As for `O=C1Nc2ccc(C(=O)O)cc2/C1=C1/Nc2ccccc2/C1=N\OCCN1CCOCC1` [Compound 12], the GI50 with MV-4-11 cells was above 1000 nM. In addition, the IC50 on FLT3 amounted to 7.55 ± 1.01 nM.
Consider `Cl.Cl.O=C1Nc2ccc(C(=O)O)cc2/C1=C1/Nc2ccccc2/C1=N\OCCN1CCNCC1` [LDD1940], for which the GI50 in the data set on MV-4-11 cells is 40 nM. Further, in data set [1] (after 10 mg/kg LDD1937 intravenous), the AUC1940/AUC1937 came out at 42.7 ± 9.44%. This molecule returned an AUC1940/AUC1937 in data set [1] (after 10 mg/kg LDD1937 oral) of 65.3 ± 16.8%. Besides, the “Tmax of LDD1940” value in data set [1] (after intravenous and oral administration of LDD1937, mice (span over both routes)) is 1∼15 min. For the same molecule, in data set [1] (setting [3]), the AUC – broadly, concentration integrated over time – amounted to 54.6 ± 0.592 µg·min/mL; the “Ae0–24 h” value is 0.868 ± 0.0333 % of dose; the maximum concentration (Cmax) (as a rule, the maximum level reached in the sampled fluid or tissue) is 1450 ± 694 µg/mL; the GI24 h is 0.719 ± 0.0556 % of dose. In data set [1] (setting [3]), the Terminal half-life came to 2.37 ± 2.02 h and the Tmax is reported as 1 (1–1) min. Further, in data set [1] (setting [4]), the AUC was determined as 1.84 ± 0.0741 µg·min/mL, the “Ae0–24 h” value is recorded as 0.0787 ± 0.0791 % of dose, the maximum concentration (Cmax) was found to be 8.17 ± 2.44 µg/mL and the GI24 h is recorded as 0.792 ± 1.09 % of dose. Moreover, in data set [1] (setting [4]), the Terminal half-life turned out to be 12.4 ± 2.15 h and the Tmax is recorded as 15 (15–120) min. Moreover, the IC50 at FLT3 is 2.45 nM and 2.5 nM.
In the case of `CO[C@@H]1[C@H](N(C)C(=O)c2ccccc2)C[C@H]2O[C@]1(C)n1c3ccccc3c3c4c(c5c6ccccc6n2c5c31)C(=O)NC4` [midostaurin], the IC50 in data set [2] is […].

(Values after publication PMC5787524, “Discovery of a FLT3 inhibitor LDD1937 as an anti-leukemic agent for acute myeloid leukemia” (Oncotarget, 2017).)
